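48-hour exposure; five concentrations; linearly interpolated endpoints. Here, GI50 denotes the concentration required for 50% inhibition of growth. TGI marks complete inhibition of growth.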
Experiments:
Experiment in all cases: NCI tumour cell line growth inhibition, 48 h
786-0 renal = tested on: 786-0 renal
A498 renal = tested on: A498 renal
A549 NSCLC = tested on: A549 NSCLC
ACHN renal = tested on: ACHN renal
BT-549 breast = tested on: BT-549 breast
CAKI-1 renal = tested on: CAKI-1 renal
CCRF-CEM leukemia = tested on: CCRF-CEM leukemia
COLO 205 colon = tested on: COLO 205 colon
DU-145 prostate = tested on: DU-145 prostate
EKVX NSCLC = tested on: EKVX NSCLC
HCC-2998 colon = tested on: HCC-2998 colon
HCT-116 colon = tested on: HCT-116 colon
HCT-15 colon = tested on: HCT-15 colon
HL-60(TB) leukemia = tested on: HL-60(TB) leukemia
HOP-62 NSCLC = tested on: HOP-62 NSCLC
HOP-92 NSCLC = tested on: HOP-92 NSCLC
HS 578T breast = tested on: HS 578T breast
HT29 colon = tested on: HT29 colon
IGROV1 ovarian = tested on: IGROV1 ovarian
K-562 leukemia = tested on: K-562 leukemia
KM12 colon = tested on: KM12 colon
LOX IMVI melanoma = tested on: LOX IMVI melanoma
M14 melanoma = tested on: M14 melanoma
MALME-3M melanoma = tested on: MALME-3M melanoma
MCF7 breast = tested on: MCF7 breast
MDA-MB-231 breast = tested on: MDA-MB-231 breast
MDA-MB-435 = tested on: MDA-MB-435
MOLT-4 leukemia = tested on: MOLT-4 leukemia
NCI-H226 lung = tested on: NCI-H226 lung
NCI-H23 lung = tested on: NCI-H23 lung
NCI-H460 lung = tested on: NCI-H460 lung
NCI-H522 lung = tested on: NCI-H522 lung
NCI/ADR-RES ovarian = tested on: NCI/ADR-RES ovarian
OVCAR-3 ovarian = tested on: OVCAR-3 ovarian
OVCAR-4 ovarian = tested on: OVCAR-4 ovarian
OVCAR-5 ovarian = tested on: OVCAR-5 ovarian
OVCAR-8 ovarian = tested on: OVCAR-8 ovarian
PC-3 prostate = tested on: PC-3 prostate
RPMI-8226 leukemia = tested on: RPMI-8226 leukemia
RXF 393 renal = tested on: RXF 393 renal
SF-268 CNS = tested on: SF-268 CNS
SF-295 CNS = tested on: SF-295 CNS
SF-539 CNS = tested on: SF-539 CNS
SK-MEL-2 melanoma = tested on: SK-MEL-2 melanoma
SK-MEL-28 melanoma = tested on: SK-MEL-28 melanoma
SK-MEL-5 melanoma = tested on: SK-MEL-5 melanoma
SK-OV-3 ovarian = tested on: SK-OV-3 ovarian
SN12C renal = tested on: SN12C renal
SNB-19 CNS = tested on: SNB-19 CNS
SNB-75 CNS = tested on: SNB-75 CNS
SR leukemia = tested on: SR leukemia
SW-620 colon = tested on: SW-620 colon
T-47D breast = tested on: T-47D breast
TK-10 renal = tested on: TK-10 renal
U251 CNS = tested on: U251 CNS
UACC-257 melanoma = tested on: UACC-257 melanoma
UACC-62 melanoma = tested on: UACC-62 melanoma
UO-31 renal = tested on: UO-31 renal

`CN1CCN(Cc2ccc(NC(=O)c3cncc(C#Cc4cnc5cccnn45)c3)cc2C(F)(F)F)CC1` was tested, and the GI50 (786-0 renal) was 1140 nM, the TGI (786-0 renal) was 2730 nM and the GI50 (A498 renal) was 907 nM. It also gave a TGI (A498 renal) of 1860 nM, a GI50 (A549 NSCLC) of 1570 nM and a TGI (A549 NSCLC) of 5050 nM. The GI50 (ACHN renal) was 1430 nM, the TGI (ACHN renal) was 4900 nM and the GI50 (BT-549 breast) was 1740 nM. For the same compound, the TGI (BT-549 breast) was 5650 nM, the GI50 (CAKI-1 renal) was 1440 nM and the TGI (CAKI-1 renal) was 5220 nM. It also gave a GI50 (CCRF-CEM leukemia) of 1520 nM, a TGI (CCRF-CEM leukemia) of 15200 nM and a GI50 (COLO 205 colon) of 1020 nM. For the same compound, the TGI (COLO 205 colon) was 2910 nM, the GI50 (DU-145 prostate) was 1540 nM and the TGI (DU-145 prostate) was 5340 nM. The GI50 (EKVX NSCLC) was 1190 nM, the TGI (EKVX NSCLC) was 3490 nM and the GI50 (HCC-2998 colon) was 1310 nM. The TGI (HCC-2998 colon) was 4240 nM, the GI50 (HCT-116 colon) was 711 nM and the TGI (HCT-116 colon) was 6040 nM. It also gave a GI50 (HCT-15 colon) of 1470 nM, a TGI (HCT-15 colon) of 5300 nM and a GI50 (HL-60(TB) leukemia) of 818 nM. It also gave a TGI (HL-60(TB) leukemia) of 2440 nM, a GI50 (HOP-62 NSCLC) of 1360 nM and a TGI (HOP-62 NSCLC) of 5080 nM. The GI50 (HOP-92 NSCLC) was 492 nM, the TGI (HOP-92 NSCLC) was 3130 nM and the GI50 (HS 578T breast) was 922 nM. The TGI (HS 578T breast) was 3260 nM, the GI50 (HT29 colon) was 963 nM and the TGI (HT29 colon) was 5100 nM. The GI50 (IGROV1 ovarian) was 1300 nM, the TGI (IGROV1 ovarian) was 5590 nM and the GI50 (K-562 leukemia) was 5 nM. The TGI (K-562 leukemia) was 21600 nM, the GI50 (KM12 colon) was 8.63 nM and the TGI (KM12 colon) was 2410 nM. For the same compound, the GI50 (LOX IMVI melanoma) was 1070 nM, the TGI (LOX IMVI melanoma) was 2980 nM and the GI50 (M14 melanoma) was 1020 nM. The TGI (M14 melanoma) was 3340 nM, the GI50 (MALME-3M melanoma) was 595 nM and the TGI (MALME-3M melanoma) was 1420 nM. It also gave a GI50 (MCF7 breast) of 707 nM, a TGI (MCF7 breast) of 4770 nM and a GI50 (MDA-MB-231 breast) of 798 nM. It also gave a TGI (MDA-MB-231 breast) of 3870 nM, a GI50 (MDA-MB-435) of 1130 nM and a TGI (MDA-MB-435) of 3760 nM. The GI50 (MOLT-4 leukemia) was 1420 nM, the TGI (MOLT-4 leukemia) was 5340 nM and the GI50 (NCI-H226 lung) was 286 nM. For the same compound, the TGI (NCI-H226 lung) was 2480 nM, the GI50 (NCI-H23 lung) was 892 nM and the TGI (NCI-H23 lung) was 2320 nM. The GI50 (NCI-H460 lung) was 1270 nM, the TGI (NCI-H460 lung) was 3440 nM and the GI50 (NCI-H522 lung) was 990 nM. For the same compound, the TGI (NCI-H522 lung) was 2720 nM, the GI50 (NCI/ADR-RES ovarian) was 1830 nM and the TGI (NCI/ADR-RES ovarian) was 8100 nM. It also gave a GI50 (OVCAR-3 ovarian) of 1760 nM, a TGI (OVCAR-3 ovarian) of 5500 nM and a GI50 (OVCAR-4 ovarian) of 732 nM. It also gave a TGI (OVCAR-4 ovarian) of 3680 nM, a GI50 (OVCAR-5 ovarian) of 1270 nM and a TGI (OVCAR-5 ovarian) of 6040 nM. The GI50 (OVCAR-8 ovarian) was 1660 nM, the TGI (OVCAR-8 ovarian) was 6300 nM and the GI50 (PC-3 prostate) was 1440 nM. For the same compound, the TGI (PC-3 prostate) was 5750 nM, the GI50 (RPMI-8226 leukemia) was 1110 nM and the TGI (RPMI-8226 leukemia) was 3050 nM. For the same compound, the GI50 (RXF 393 renal) was 783 nM, the TGI (RXF 393 renal) was 1710 nM and the GI50 (SF-268 CNS) was 1190 nM. It also gave a TGI (SF-268 CNS) of 2810 nM, a GI50 (SF-295 CNS) of 1490 nM and a TGI (SF-295 CNS) of 5420 nM. The GI50 (SF-539 CNS) was 558 nM, the TGI (SF-539 CNS) was 1330 nM and the GI50 (SK-MEL-2 melanoma) was 639 nM. It also gave a TGI (SK-MEL-2 melanoma) of 1710 nM, a GI50 (SK-MEL-28 melanoma) of 1300 nM and a TGI (SK-MEL-28 melanoma) of 4630 nM. It also gave a GI50 (SK-MEL-5 melanoma) of 1060 nM, a TGI (SK-MEL-5 melanoma) of 2420 nM and a GI50 (SK-OV-3 ovarian) of 1670 nM. The TGI (SK-OV-3 ovarian) was 5210 nM, the GI50 (SN12C renal) was 1260 nM and the TGI (SN12C renal) was 5200 nM. For the same compound, the GI50 (SNB-19 CNS) was 1800 nM, the TGI (SNB-19 CNS) was 5620 nM and the GI50 (SNB-75 CNS) was 914 nM. The TGI (SNB-75 CNS) was 1880 nM, the GI50 (SR leukemia) was 1390 nM and the TGI (SR leukemia) was 17600 nM. The GI50 (SW-620 colon) was 981 nM, the TGI (SW-620 colon) was 4340 nM and the GI50 (T-47D breast) was 2200 nM. It also gave a TGI (T-47D breast) of 11900 nM, a GI50 (TK-10 renal) of 1880 nM and a TGI (TK-10 renal) of 6030 nM. The GI50 (U251 CNS) was 1480 nM, the TGI (U251 CNS) was 5420 nM and the GI50 (UACC-257 melanoma) was 1400 nM. The TGI (UACC-257 melanoma) was 5040 nM, the GI50 (UACC-62 melanoma) was 1330 nM and the TGI (UACC-62 melanoma) was 4460 nM. It also gave a GI50 (UO-31 renal) of 1490 nM and a TGI (UO-31 renal) of 3780 nM.

Source: PubChem BioAssay (NCI)
